From patent US5985926A, “Method for inhibiting intracellular viral replication” (Cell Therapeutics, Inc., priority 1997, dated 1999) come the findings set out here.

For orientation: IC50 means the concentration at which inhibition is half-maximal. High values mean a need for much substance, low ones inhibition by little substance.

The subject of test [1] is HIV-LTR promoter (tat transactivation) in 293-EBNA cells. Put plainly: AP reporter gene expression from HIV-LTR promoter with tat expression vector, 293-EBNA cells. It counts as cell-based, HIV; human cells. Particulars: 293-EBNA cells, HIV promoter, in words. The method, boiled down:
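293-EBNA cells were transiently co-transfected with an HIV-LTR-driven secreted placental alkaline phosphatase reporter and a tat(1–72) expression plasmid. At 24 h, the medium was switched to serum-free AIM V before compounds were added at various concentrations. Secreted AP activity was read colorimetrically at 405 nm 19–24 h later.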
For orientation: In a reporter assay the amount or activity of a reporter protein is the signal.

Test [2] relates to HIV-1 strain JR-CSF in PBL. Put plainly: HIV-1 p24 antigen expression in acutely infected peripheral blood lymphocytes (PBL). It counts as cell-based, HIV-1; human cells. The note with it: Human immunodeficiency virus 1, Lymphocyte, clinical isolate. As to the method: FIG. 17 illustrates a dose response curves of CT2576 on constitutive, TNF-α, and IL-6-mediated expression of HIV-1 in a chronically infected U1 cell line (left Y-axis) and of CT3537 on HIV expression in PBL acutely infected with the JR-CSF primary isolate (right Y-axis). U1 cells were incubated for four days after the addition of CT2576 with or without TNF-α (20 pg/ml) or IL-6 (1 ng/ml). PBL were inoculated with HIV at 10 ng virus/10^6 cells/well and incubated with various concentrations of CT3537 for 7 days. Each data point represents the average expression levels of HIV-1 p24-antigen in the cell supernatants measured by ELISA from triplicate samples with error bar indicating the SD.
Stable cell lines 293tar, 293tat and 293tat2 were generated by transfections using conditions described in (Tate et al., FASEB J. 4:227-231, 1990) with the plasmid pHIV.AP alone or along with either pHIV.tat or pSV2tat72, respectively. The assay of HIV-1 p24 antigen expression in the chronically HIV-1-infected promonocytic line U1 after 4 days and in acutely infected peripheral blood lymphocytes (PBL) after 7 days were described (Peterson et al., J. Clin. Invest. 89:574-580, 1992, and Brighty et al., Proc Natl. Acad. Sci. USA 88:7802-7805, 1991). […]

Consider `CCCCCCCCNCC(O)CCCCCCCCCN1C(=O)CCN(C)C1=O` (centres unmarked) [CT1829, 3-(11-octylamino-10-hydroxyundecyl)-1-methyldihydrouracil], for which the “inhibition of AP expression (HIV-LTR promoter)” value in test [1] is “inhibit HIV promoter driven expression”.
In test [2], `CCCCCCCCNCC(O)CCCCCCCCCn1c(=O)c2c(ncn2C)n(C)c1=O` (centres unmarked) [CT2576, 1-(11-octylamino-10-hydroxyundecyl)-3,7-dimethylxanthine] yielded an IC50 of about 1 µM.
